Results on 21 compounds are retold here after patent US8410139B2, “Prodrugs of a piperidinyl derivative as modulators of chemokine receptor activity” (Bristol-Myers Squibb Company, priority 2009, dated 2013).

Series [1] is described as follows: Thermodynamic equilibrium aqueous solubility assay. The class given is physicochemical. The note with it: thermodynamic from solid; for solubility thermodynamic: aqueous solvent, read-out: Aq. sol., mg/mL (pH). As for the experimental part:
Thermodynamic Equilibrium Aqueous Solubility Assay
The calibration standard is prepared by accurately weighing 0.5-0.7 mg of sample in 5 ml of methanol. If the material is not fully soluble in methanol, other solvents such as DMSO or mixed solvents will be used.
*The calibration standard is typically prepared fresh immediately before the start of the assay. A two-point calibration curve should be used to determine the concentration of the final solution. A serial dilution is performed on the standard solution.
The final saturated solution is prepared by adding 1.0 ml of the appropriate aqueous solvent to the remaining portion of material (˜1 mg/l ml) into a 1 dram vial. The solution is sonicated and vortexed for ˜30 seconds. The sample solution is placed on an orbiter that continually agitates the sample solutions for 15-24 hours at room temperature. The final saturated solution is then transferred to a 1.5 ml Eppendorf tube and centrifuged for ˜2 min. at 10000 rpms. The supernatant from the saturated solution is transferred to a glass HPLC vial without filtering since the 1.5 mL volume is insufficient to saturate a syringe filter. This sample preparation procedure nullifies the effects of non-specific binding to the filtering apparatus.
The standards and sample are analyzed by HPLC using either UV/Vis diode array or variable wavelength detection. Typical quantitation wavelengths are 210 or 254 nm; detection wavelength can be individually customized to optimize sensitivity. In addition to UV detection, mass spectrometry detection is recommended if available in order to confirm the identity of the HPLC-UV peak of interest.
Dilutions of aqueous test solutions are performed if HPLC-UV peak is beyond the linear portion of the standard calibration curve. Typical dilutions include 100 ul/900 ul (×10) or 500 ul/500 ul (2×), as required.
HPLC grade solvents are employed.

Series [2] can be described thus: Solution stability assay (pH 1.0 and pH 7.4, 37° C.). It is filed as physicochemical. As for the experimental part:
Acetonitrile Stock Solution: Prepare an Acetonitrile Stock Solution of the prodrug by dissolving 1.5-2.0 mg of accurately weighted compound in 5.0 mL of acetonitrile in 5 mL volumetric flask.
pH 7.4 Buffer Working Solution: Prepare a pH 7.4 Buffer working Solution of drug by adding 1.5 mL of the Acetonitrile Stock Solution to 3.5 mL of stability buffer in a 20 mL scintillation vial, mix very well. Using a 3 mL syringe withdraw ˜3 mL of solution and filter using the Gelman 0.45 μm syringe filter into a clean 1.5 mL LC vial. This filtered solution will be used to evaluate the prodrug degradation throughout the course of the study. Target concentration: 90-120 μg/mL (70% Aqueous: 30% Acetonitrile)
pH 1.0 Acidic Working Solution: Prepare a pH1.0 Working Solution of drug by adding 1.5 mL of the Acetonitrile Stock Solution to 3.5 mL of stability buffer in a 20 mL scintillation vial, mix very well. Using a 3 mL syringe withdraw ˜3 mL of solution and filter using the Gelman 0.45 μm syringe filter into a clean 1.5 mL LC vial. This filtered solution will be used to evaluate the prodrug degradation throughout the course of the study. Target concentration: 90-120 μg/mL (70% Aqueous: 30% Acetonitrile)
Following the sample preparation procedure described above a single sample (n=1) is prepared for each pH condition. The samples were then placed in an HPLC autosampler maintained at 37° C. and samples were analyzed over a 24 hr period. Prodrug remaining (%) is reported relative to the initial peak area (t=0 h). In cases where a conversion to parent half-life could be calculated, a t1/2 was generated. Confirmation of the conversion to parent from the prodrug was obtained by LCMS and HPLC analysis of the final timepoint samples.
Typical LC parameters are shown below:
• HPLC System: HP1100 Series, Hewlett Packard., Heated autosampler • Analytical column. Synergi 4u Hydro C18, 4.6 mm×5.0 cm, Phenomenex • Column temperature: 40° C. • Autosampler temp: 37° C. • Flow rate: 1.0 mL/min • Injection Volume: 10 μL • Mobile Phase: A: Acetonitrile • B: 0.1% Phosphoric acid in water • Run Time: 14.0 minutes • Typical LCMS parameters are shown below: • LC-MS System: Surveyor HPLC system, ThermoFinnigan LCQ Deca XP Max (Ion trap) • Analytical column. Synergi 4u Hydro C18, 4.6 mm×5.0 cm, Phenomenex • Column temperature: 40° C. • Autosampler temp: 22° C. • Flow rate: 1.0 mL/min • Injection Volume: 5 […] • Mobile Phase: A: 95% Acetonitrile/5% 20 mM Ammonium Acetate • B: 5% Acetonitrile/95% 20 mM Ammonium Acetate • LCQ Parameters • Sheath Flow Rate: 81.64 • Aux/Sweep Flow Rate: 19.01 • Current (uA): 10.89 • Voltage (kV): 5.00 • Capillary©: 348.10 • Capillary Voltage (V): 30.44

The mark [3] stands for this setting: pH 1, conversion of the prodrug to compound 1, 37° C., read-out: Aq. Stability half-life (pH 1/7.4) Hrs (converted).
The mark [4] stands for this setting: pH 7.4, conversion of the prodrug to compound 1, 37° C., read-out: Aq. Stability half-life (pH 1/7.4) Hrs (converted).

Values after ≈ are worked out from the molar mass of the structure shown. Read-outs that look alike come from different tables or passages of the source.

As usually defined, the solubility is how much of the substance goes into solution per volume.

`CC(C)[C@@H](NC(=O)NCC(C)(C)OC(=O)CCC(=O)O)C(=O)N1CC[C@](O)(c2ccc(Cl)cc2)C(C)(C)C1` [Example 19]: the solubility thermodynamic in series [1] (pH 6.5, aqueous buffer) is 0.08 mg/mL (≈ 144 µM). Further, the half-life in series [2] (setting [3]) and in series [2] (setting [4]) was greater than 22 h throughout.
Turning to `CC(=O)OCOC(=O)OC(C)(C)CNC(=O)N[C@@H](C(=O)N1CC[C@](O)(c2ccc(Cl)cc2)C(C)(C)C1)C(C)C` [Example 15], in series [1] (pH 7.4, aqueous buffer), the solubility thermodynamic was found to be 0.022 mg/mL (≈ 38.6 µM). The half-life in series [2] (setting [3]) and in series [2] (setting [4]) was greater than 22 h in each case.
In the case of `CCOC(=O)CCC(=O)OC(C)(C)CNC(=O)N[C@@H](C(=O)N1CC[C@](O)(c2ccc(Cl)cc2)C(C)(C)C1)C(C)C` [Example 17], in series [1] (pH 7.4, aqueous buffer), the solubility thermodynamic is less than 0.007 mg/mL. Also, the half-life in series [2] (setting [3]) and in series [2] (setting [4]) was greater than 22 h throughout.
`CC(C)[C@@H](NC(=O)NCC(C)(C)OC(=O)CCOP(=O)(O)O)C(=O)N1CC[C@](O)(c2ccc(Cl)cc2)C(C)(C)C1` [Example 29]: the solubility thermodynamic in series [1] (pH 6.5, aqueous buffer) was found to be 4.8 mg/mL (≈ 7920 µM). The half-life in series [2] (setting [3]) was 81 h; in series [2] (setting [4]) it was greater than 22 h.
As for `CCC(=O)OC(C)(C)CNC(=O)N[C@@H](C(=O)N1CC[C@](O)(c2ccc(Cl)cc2)C(C)(C)C1)C(C)C` [Example 5, 1-(3-((R)-1-((S)-4-(4-chlorophenyl)-4-hydroxy-3,3-dimethylpiperidin-1-yl)-3-methyl-1-oxobutan-2-yl)ureido)-2-methylpropan-2-yl propionate], the solubility thermodynamic in series [1] (pH 6.5, aqueous buffer) stood at 0.04 mg/mL (≈ 78.4 µM). The results for the half-life in series [2] (setting [3]) and in series [2] (setting [4]) were 25 h and greater than 22 h, respectively.
The like results for `CC(C)[C@@H](NC(=O)NCC(C)(C)OC(=O)C(N)CS(=O)(=O)O)C(=O)N1CC[C@](O)(c2ccc(Cl)cc2)C(C)(C)C1` (stereo partly shown) [Example 32] were, in that order, 1.12 mg/mL (≈ 1850 µM), greater than 22 h and greater than 22 h.
Regarding `CC(C)[C@@H](NC(=O)NCC(C)(C)OC(=O)OCOC(=O)C1(N)CC1)C(=O)N1CC[C@](O)(c2ccc(Cl)cc2)C(C)(C)C1` [Example 14], in series [1] (pH 7.4, aqueous buffer), the solubility thermodynamic is 0.18 mg/mL (≈ 295 µM). Besides, the half-life was 49 h in series [2] (setting [3]) and 107 h in series [2] (setting [4]).
On to `CC(C)[C@@H](NC(=O)NCC(C)(C)OC(=O)CCCC(=O)O)C(=O)N1CC[C@](O)(c2ccc(Cl)cc2)C(C)(C)C1` [Example 20], for which the solubility thermodynamic in series [1] (pH 6.5, aqueous buffer) was 0.317 mg/mL (≈ 558 µM). The half-life in series [2] (setting [3]) and in series [2] (setting [4]) was greater than 22 h each time.
With `CC(C)[C@@H](NC(=O)NCC(C)(C)OC(=O)CCS(=O)(=O)O)C(=O)N1CC[C@](O)(c2ccc(Cl)cc2)C(C)(C)C1` [Example 22], the solubility thermodynamic in series [1] (pH 6.5, aqueous buffer) was greater than 7 mg/mL. Moreover, the half-life was 44 h in series [2] (setting [3]) and greater than 22 h in series [2] (setting [4]).
In series [1] (aqueous buffer, pH 6.6 buffer), `CC(C)[C@@H](NC(=O)NCC(C)(C)O)C(=O)N1CC[C@](O)(c2ccc(Cl)cc2)C(C)(C)C1` [Compound 1, 1-((R)-1-((S)-4-(4-chlorophenyl)-4-hydroxy-3,3-dimethylpiperidin-1-yl)-3-methyl-1-oxobutan-2-yl)-3-(2-hydroxy-2-methylpropyl)urea] registered a solubility of 47 µg/mL (≈ 104 µM). Also, the half-life in series [2] (pH 1, parent compound, read-out: chemical stability half-life (converted)) is 30 h; in series [2] (pH 7.4, parent compound, read-out: chemical stability half-life (converted)), greater than 22 h.
For `CC(C)[C@@H](NC(=O)NCC(C)(C)OC(=O)OCCN1CCOCC1)C(=O)N1CC[C@](O)(c2ccc(Cl)cc2)C(C)(C)C1` [Example 7, 1-(3-((R)-1-((S)-4-(4-chlorophenyl)-4-hydroxy-3,3-dimethylpiperidin-1-yl)-3-methyl-1-oxobutan-2-yl)ureido)-2-methylpropan-2-yl 2-morpholinoethyl carbonate], the solubility thermodynamic in series [1] (pH 6.5, aqueous buffer) came out at 0.34 mg/mL (≈ 556 µM). The half-life in series [2] (setting [3]) was 85 h; in series [2] (setting [4]), 131 h.
For the compound `CC(C)[C@@H](NC(=O)NCC(C)(C)OCOP(=O)(O)O)C(=O)N1CC[C@](O)(c2ccc(Cl)cc2)C(C)(C)C1` [Example 10], the half-life in series [2] (setting [3]) is less than 1 h.
For the compound `CC(=O)OC(C)(C)CNC(=O)N[C@@H](C(=O)N1CC[C@](O)(c2ccc(Cl)cc2)C(C)(C)C1)C(C)C` [Example 4, 1-(3-((R)-1-((S)-4-(4-chlorophenyl)-4-hydroxy-3,3-dimethylpiperidin-1-yl)-3-methyl-1-oxobutan-2-yl)ureido)-2-methylpropan-2-yl acetate], the solubility thermodynamic in series [1] (pH 6.5, aqueous buffer) stood at 0.03 mg/mL. Further, the half-life in series [2] (setting [3]) is 29 h; in series [2] (setting [4]), greater than 22 h.
The like results for `CC(C)[C@@H](NC(=O)NCC(C)(C)OC(=O)OCOC(=O)Cc1ccc(OP(=O)(O)O)cc1)C(=O)N1CC[C@](O)(c2ccc(Cl)cc2)C(C)(C)C1` [Example 9] were, in that order, 1.6 mg/mL (≈ 2160 µM), 25 h and 72 h.
Regarding `CC(C)[C@@H](NC(=O)NCC(C)(C)OC(=O)OCS(=O)(=O)O)C(=O)N1CC[C@](O)(c2ccc(Cl)cc2)C(C)(C)C1` [Example 23], in series [1] (pH 6.5, aqueous buffer), the solubility thermodynamic was greater than 0.3 mg/mL. In addition, the half-life in series [2] (setting [3]) is 25 h; in series [2] (setting [4]) it was 23 h.
The like results for `CC(C)[C@@H](NC(=O)NCC(C)(C)OC(=O)OCOC(=O)/C=C/C(=O)O)C(=O)N1CC[C@](O)(c2ccc(Cl)cc2)C(C)(C)C1` [Example 6, (R,E)-3-((S)-4-(4-chlorophenyl)-4-hydroxy-3,3-dimethylpiperidine-1-carbonyl)-2,8,8-trimethyl-5,10,14-trioxo-9,11,13-trioxa-4,6-diazaheptadec-15-en-17-oic acid] were, in that order, 2.2 mg/mL (≈ 3510 µM), 61 h and 49 h.
As for `CC(O)C(=O)OCO[C@]1(c2ccc(Cl)cc2)CCN(C(=O)[C@H](NC(=O)NCC(C)(C)O)C(C)C)CC1(C)C` (stereo partly shown) [Example 27], the solubility thermodynamic in series [1] (pH 6.5, aqueous buffer) came to 0.5 mg/mL (≈ 899 µM). In addition, the half-life in series [2] (setting [3]) was 36 h; in series [2] (setting [4]), greater than 22 h.
The like results for `CC(COC(=O)OC(C)(C)CNC(=O)N[C@@H](C(=O)N1CC[C@](O)(c2ccc(Cl)cc2)C(C)(C)C1)C(C)C)OP(=O)(O)O` (stereo partly shown) [Example 36] were, in that order, greater than 1.2 mg/mL, 97 h and greater than 22 h.
Turning to `CC(C)[C@@H](NC(=O)NCC(C)(C)OC(=O)OCOP(=O)(O)O)C(=O)N1CC[C@](O)(c2ccc(Cl)cc2)C(C)(C)C1` [Example 11], the half-life was 107 h in series [2] (setting [3]) and 0.3 h in series [2] (setting [4]).
For `CC(C)[C@@H](NC(=O)NCC(C)(C)OC(=O)OCOC(=O)C(C)(C)N)C(=O)N1CC[C@](O)(c2ccc(Cl)cc2)C(C)(C)C1` [Example 13], the results for the half-life in series [2] (setting [3]) and in series [2] (setting [4]) were 10.1 h and 0.25 h, respectively.
The matching figures for `CC(C)[C@@H](N)C(=O)OCOC(=O)OC(C)(C)CNC(=O)N[C@@H](C(=O)N1CC[C@](O)(c2ccc(Cl)cc2)C(C)(C)C1)C(C)C` [Example 12]: 82 h and 0.3 h.
